≈ marks a conversion by molar mass, not a printed value.
How the values were obtained:
Assay in all cases: In vitro antibacterial evaluation: minimum inhibitory concentration (MIC), broth dilution method
Assay type in all cases: cell-based
Enterococcus sp. = system: Enterococcus sp.
In short: (§1)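 Values are minimum inhibitory concentrations, meaning the smallest antibiotic concentration that stops growth of the organism. They come from broth dilution in Muller-Hinton II […] per NCCLS guidance (M7-A2), using 5×10^5 CFU/mL and concentrations from 64 to 0.06 μg/mL.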

Escherichia coli [1] = system: Escherichia coli
In short: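 Broth dilution per NCCLS M7-A2 in Muller-Hinton II […], inoculum 5×10^5 CFU/mL, antibiotic tested over 64-0.06 μg/mL. MIC is taken as the lowest concentration that inhibits growth. Panel includes recent clinical isolates resistant to methicillin, penicillin and/or vancomycin.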

Staphylococcus sp. = details: 18 hours at 35° C.
In short: as §1

Escherichia coli [2] = system: Escherichia coli; remark: listed apart in the source

## CC(=O)OCC1OC(OC2C(CO)OC(Oc3ccc(CC4NC(=O)C(C(C)c5ccccc5)NC(=O)CNC(=O)C(CO)NC(=O)C(C(O)C5CNC(=N)N5C5OC(CO)C(O)C(O)C5O)NC(=O)C(C(O)C5CNC(=N)N5)NC4=O)cc3)C(O)C2O)C(O)C(OC(=O)CCC(C)C)C1O (stereo not drawn) [Example 270b, Cyclo[glycyl-β-methylphenylalanyl-O-[4-O-[6-O-acetyl-3-O-(4-methylpentanoyl)hexopyranosyl]hexopyranosyl]tyrosyl-3-(2-iminoimidazolidin-4-yl)seryl-3-(3-hexopyranosyl-2-iminoimidazolidin-4-yl)serylseryl]]
Enterococcus sp.
  MIC Enterococcus avium (GC 4558): 32 µg/mL (≈ 22.3 µM)
  MIC Enterococcus faecalis (ATCC 29212): 32 µg/mL (≈ 22.3 µM)
  MIC Enterococcus faecalis (GC 4553): 32 µg/mL (≈ 22.3 µM)
  MIC Enterococcus faecalis (GC 4554): 32 µg/mL (≈ 22.3 µM)
  MIC Enterococcus faecium (GC 2243): 32 µg/mL (≈ 22.3 µM)
  MIC Enterococcus faecium (GC 4556): 32 µg/mL (≈ 22.3 µM)
  MIC Enterococcus faecium (GC 4557): 8 µg/mL (≈ 5.57 µM)
Escherichia coli [1]
  MIC Escherichia coli (GC 4559): >64 µg/mL
  MIC Escherichia coli (GC 4560): 4 µg/mL (≈ 2.79 µM)
Staphylococcus sp.
  MIC Coagulase Negative Staphylococcus (GC 4547): 4 µg/mL (≈ 2.79 µM)
  MIC Coagulase Negative Staphylococcus (GC 4548): 4 µg/mL (≈ 2.79 µM)
  MIC Coagulase Negative Staphylococcus (GC 4549): 4 µg/mL (≈ 2.79 µM)
  MIC Coagulase Negative Staphylococcus (GC 4551): 4 µg/mL (≈ 2.79 µM)
  MIC Staphylococcus aureus (ATCC 29213): 8 µg/mL (≈ 5.57 µM)
  MIC Staphylococcus aureus (GC 1131): 8 µg/mL (≈ 5.57 µM)
  MIC Staphylococcus aureus (GC 4541): 8 µg/mL (≈ 5.57 µM)
  MIC Staphylococcus aureus (GC 4542): 8 µg/mL (≈ 5.57 µM)
  MIC Staphylococcus aureus (GC 4544): 8 µg/mL (≈ 5.57 µM)
  MIC Staphylococcus aureus (GC 4545): 4 µg/mL (≈ 2.79 µM)
  MIC Staphylococcus aureus-SMITH (GC 4543): 4 µg/mL (≈ 2.79 µM)
  MIC Staphylococcus haemolyticus (GC 4546): 4 µg/mL (≈ 2.79 µM)
Staphylococcus sp.; broth dilution
  MIC Coagulase Negative Staphylococcus (GC 4547): 4 µg/mL (≈ 2.79 µM)
  MIC Coagulase Negative Staphylococcus (GC 4548): 4 µg/mL (≈ 2.79 µM)
  MIC Coagulase Negative Staphylococcus (GC 4549): 4 µg/mL (≈ 2.79 µM)
  MIC Coagulase Negative Staphylococcus (GC 4551): 4 µg/mL (≈ 2.79 µM)
  MIC Staphylococcus aureus (ATCC 29213): 8 µg/mL (≈ 5.57 µM)
  MIC Staphylococcus aureus (GC 1131): 8 µg/mL (≈ 5.57 µM)
  MIC Staphylococcus aureus (GC 4541): 8 µg/mL (≈ 5.57 µM)
  MIC Staphylococcus aureus (GC 4542): 8 µg/mL (≈ 5.57 µM)
  MIC Staphylococcus aureus (GC 4544): 8 µg/mL (≈ 5.57 µM)
  MIC Staphylococcus aureus (GC 4545): 4 µg/mL (≈ 2.79 µM)
  MIC Staphylococcus aureus-SMITH (GC 4543): 4 µg/mL (≈ 2.79 µM)
  MIC Staphylococcus haemolyticus (GC 4546): 4 µg/mL (≈ 2.79 µM)
Escherichia coli [2]
  MIC Escherichia coli (ATCC 25922): >64 µg/mL

## CCC(C)C(=O)OC1C(CO)OC(OC2C(CO)OC(Oc3ccc(CC4NC(=O)C(C(C)c5ccccc5)NC(=O)CNC(=O)C(CO)NC(=O)C(C(O)C5CNC(=N)N5C5OC(CO)C(O)C(O)C5O)NC(=O)C(C(O)C5CNC(=N)N5)NC4=O)cc3)C(O)C2O)C(O)C1O (stereo not drawn) [Example 278c, Cyclo[glycyl-β-methylphenylalanyl-O-[4-O-[4-O-(2-methylbutanoyl)hexopyranosyl]hexopyranosyl]tyrosyl-3-(2-iminoimidazolidin-4-yl)seryl-3-(3-hexopyranosyl-2-iminoimidazolidin-4-yl)serylseryl]]
Enterococcus sp.
  MIC Enterococcus avium (GC 4558): 32 µg/mL (≈ 23.2 µM)
  MIC Enterococcus faecalis (ATCC 29212): 32 µg/mL (≈ 23.2 µM)
  MIC Enterococcus faecalis (GC 4553): 32 µg/mL (≈ 23.2 µM)
  MIC Enterococcus faecalis (GC 4554): 32 µg/mL (≈ 23.2 µM)
  MIC Enterococcus faecium (GC 2243): 32 µg/mL (≈ 23.2 µM)
  MIC Enterococcus faecium (GC 4556): 32 µg/mL (≈ 23.2 µM)
  MIC Enterococcus faecium (GC 4557): 8 µg/mL (≈ 5.8 µM)
Enterococcus sp.; Enterococcus faecalis (GC 6189)
  MIC Enterococcus faecalis (GC 6189): 32 µg/mL (≈ 23.2 µM)
Escherichia coli [1]
  MIC Escherichia coli (GC 4559): >64 µg/mL
  MIC Escherichia coli (GC 4560): 2 µg/mL (≈ 1.45 µM)
Staphylococcus sp.
  MIC Coagulase Negative Staphylococcus (GC 4547): 4 µg/mL (≈ 2.9 µM)
  MIC Coagulase Negative Staphylococcus (GC 4548): 2 µg/mL (≈ 1.45 µM)
  MIC Coagulase Negative Staphylococcus (GC 4549): 2 µg/mL (≈ 1.45 µM)
  MIC Coagulase Negative Staphylococcus (GC 4551): 8 µg/mL (≈ 5.8 µM)
  MIC Coagulase Negative Staphylococcus (GC 6257): 2 µg/mL (≈ 1.45 µM)
  MIC Staphylococcus aureus (ATCC 29213): 4 µg/mL (≈ 2.9 µM)
  MIC Staphylococcus aureus (GC 1131): 8 µg/mL (≈ 5.8 µM)
  MIC Staphylococcus aureus (GC 3051): 2 µg/mL (≈ 1.45 µM)
  MIC Staphylococcus aureus (GC 3053): 8 µg/mL (≈ 5.8 µM)
  MIC Staphylococcus aureus (GC 4541): 4 µg/mL (≈ 2.9 µM)
  MIC Staphylococcus aureus (GC 4542): 4 µg/mL (≈ 2.9 µM)
  MIC Staphylococcus aureus (GC 4544): 4 µg/mL (≈ 2.9 µM)
  MIC Staphylococcus aureus (GC 4545): 4 µg/mL (≈ 2.9 µM)
  MIC Staphylococcus aureus-SMITH (GC 4543): 4 µg/mL (≈ 2.9 µM)
  MIC Staphylococcus haemolyticus (GC 4546): 2 µg/mL (≈ 1.45 µM)
Staphylococcus sp.; broth dilution
  MIC Coagulase Negative Staphylococcus (GC 4547): 4 µg/mL (≈ 2.9 µM)
  MIC Coagulase Negative Staphylococcus (GC 4548): 2 µg/mL (≈ 1.45 µM)
  MIC Coagulase Negative Staphylococcus (GC 4549): 2 µg/mL (≈ 1.45 µM)
  MIC Coagulase Negative Staphylococcus (GC 4551): 8 µg/mL (≈ 5.8 µM)
  MIC Coagulase Negative Staphylococcus (GC 6257): 2 µg/mL (≈ 1.45 µM)
  MIC Staphylococcus aureus (ATCC 29213): 4 µg/mL (≈ 2.9 µM)
  MIC Staphylococcus aureus (GC 1131): 8 µg/mL (≈ 5.8 µM)
  MIC Staphylococcus aureus (GC 3051): 2 µg/mL (≈ 1.45 µM)
  MIC Staphylococcus aureus (GC 3053): 8 µg/mL (≈ 5.8 µM)
  MIC Staphylococcus aureus (GC 4541): 4 µg/mL (≈ 2.9 µM)
  MIC Staphylococcus aureus (GC 4542): 4 µg/mL (≈ 2.9 µM)
  MIC Staphylococcus aureus (GC 4544): 4 µg/mL (≈ 2.9 µM)
  MIC Staphylococcus aureus (GC 4545): 4 µg/mL (≈ 2.9 µM)
  MIC Staphylococcus aureus-SMITH (GC 4543): 4 µg/mL (≈ 2.9 µM)
  MIC Staphylococcus haemolyticus (GC 4546): 2 µg/mL (≈ 1.45 µM)
Escherichia coli [2]
  MIC Escherichia coli (ATCC 25922): >64 µg/mL
